Source: ChEMBL document CHEMBL2413072, “Synthesis and in vitro anticancer studies of novel C-2 arylidene congeners of lantadenes” (2013)
The source made the active and inactive calls. The rule behind the calls is not given here.

Columns and labels:
Type in all cases: functional
[1] = test system: SF-539; assay: Growth inhibition of human SF539 cells assessed as growth inhibition at 10 uM by sulforhodamine B assay; details: read-out: GI
[2] = test system: HL-60(TB); assay: Growth inhibition of human HL-60(TB) cells assessed as growth inhibition at 10 uM by sulforhodamine B assay
[3] = test system: SK-MEL-5; assay: Growth inhibition of human SK-MEL-5 cells assessed as growth inhibition at 10 uM by sulforhodamine B assay; details: read-out: GI
[4] = test system: MDA-MB-435; assay: Growth inhibition of human MDA-MB-435 cells assessed as growth inhibition at 10 uM by sulforhodamine B assay; details: read-out: GI
[5] = test system: OVCAR-3; assay: Growth inhibition of human OVCAR3 cells assessed as growth inhibition at 10 uM by sulforhodamine B assay; details: read-out: GI
[6] = test system: OVCAR-4; assay: Growth inhibition of human OVCAR4 cells assessed as cell growth at 10 uM by sulforhodamine B assay; details: read-out: Activity
[7] = test system: M14; assay: Growth inhibition of human M14 cells assessed as growth inhibition at 10 uM by sulforhodamine B assay; details: read-out: GI
[8] = test system: CCRF-CEM; assay: Growth inhibition of human CCRF-CEM cells assessed as cell growth at 10 uM by sulforhodamine B assay; details: read-out: Activity
[9] = Growth inhibition of human HCC2998 cells assessed as cell growth at 10 uM by sulforhodamine B assay; details: HCC 2998, read-out: Activity
[10] = test system: M14; assay: Growth inhibition of human M14 cells assessed as cell growth at 10 uM by sulforhodamine B assay; details: read-out: Activity
[11] = test system: UACC-62; assay: Growth inhibition of human UACC62 cells assessed as growth inhibition at 10 uM by sulforhodamine B assay; details: read-out: GI
[12] = test system: BT-549; assay: Growth inhibition of human BT549 cells assessed as cell growth at 10 uM by sulforhodamine B assay; details: read-out: Activity
[13] = test system: SF-295; assay: Growth inhibition of human SF295 cells assessed as cell growth at 10 uM by sulforhodamine B assay; details: read-out: Activity
[14] = test system: PC-3; assay: Growth inhibition of human PC3 cells assessed as cell growth at 10 uM by sulforhodamine B assay; details: read-out: Activity
[15] = test system: NCI-H322M; assay: Growth inhibition of human NCI-H322M cells assessed as growth inhibition at 10 uM by sulforhodamine B assay; details: read-out: GI
[16] = test system: K562; assay: Growth inhibition of human K562 cells assessed as growth inhibition at 10 uM by sulforhodamine B assay; details: read-out: GI
[17] = test system: SN12C; assay: Growth inhibition of human SN12C cells assessed as cell growth at 10 uM by sulforhodamine B assay; details: read-out: Activity
[18] = test system: NCI-H460; assay: Growth inhibition of human NCI-H460 cells assessed as growth inhibition at 10 uM by sulforhodamine B assay; details: read-out: GI
[19] = test system: A498; assay: Growth inhibition of human A498 cells assessed as growth inhibition at 10 uM by sulforhodamine B assay; details: read-out: GI
[20] = test system: SN12C; assay: Growth inhibition of human SN12C cells assessed as growth inhibition at 10 uM by sulforhodamine B assay; details: read-out: GI
[21] = test system: Malme-3M; assay: Growth inhibition of human MALME-3M cells assessed as cell growth at 10 uM by sulforhodamine B assay; details: read-out: Activity
[22] = test system: U-251; assay: Growth inhibition of human U251 cells assessed as growth inhibition at 10 uM by sulforhodamine B assay; details: read-out: GI
[23] = test system: OVCAR-5; assay: Growth inhibition of human OVCAR5 cells assessed as cell growth at 10 uM by sulforhodamine B assay; details: read-out: Activity
[24] = test system: MCF7; assay: Growth inhibition of human MCF7 cells assessed as cell growth at 10 uM by sulforhodamine B assay; details: read-out: Activity
[25] = test system: UO-31; assay: Growth inhibition of human UO31 cells assessed as cell growth at 10 uM by sulforhodamine B assay; details: read-out: Activity
[26] = test system: K562; assay: Growth inhibition of human K562 cells assessed as cell growth at 10 uM by sulforhodamine B assay; details: read-out: Activity
[27] = test system: NCI-H460; assay: Growth inhibition of human NCI-H460 cells assessed as cell growth at 10 uM by sulforhodamine B assay; details: read-out: Activity
[28] = Growth inhibition of human Hs 578T cells assessed as cell growth at 10 uM by sulforhodamine B assay; details: read-out: Activity
[29] = test system: RPMI-8226; assay: Growth inhibition of human RPMI8226 cells assessed as cell growth at 10 uM by sulforhodamine B assay; details: read-out: Activity
[30] = test system: HCT-15; assay: Growth inhibition of human HCT15 cells assessed as growth inhibition at 10 uM by sulforhodamine B assay; details: read-out: GI
[31] = test system: SW-620; assay: Growth inhibition of human SW620 cells assessed as cell growth at 10 uM by sulforhodamine B assay; details: read-out: Activity
[32] = test system: KM12; assay: Growth inhibition of human KM12 cells assessed as cell growth at 10 uM by sulforhodamine B assay; details: read-out: Activity
[33] = test system: HCT-116; assay: Growth inhibition of human HCT116 cells assessed as cell growth at 10 uM by sulforhodamine B assay; details: read-out: Activity
[34] = test system: CAKI-1; assay: Growth inhibition of human CAKI-1 cells assessed as cell growth at 10 uM by sulforhodamine B assay; details: read-out: Activity
[35] = test system: CAKI-1; assay: Growth inhibition of human CAKI-1 cells assessed as growth inhibition at 10 uM by sulforhodamine B assay; details: read-out: GI
[36] = test system: UO-31; assay: Growth inhibition of human UO31 cells assessed as growth inhibition at 10 uM by sulforhodamine B assay; details: read-out: GI
[37] = test system: SF-539; assay: Growth inhibition of human SF539 cells assessed as cell growth at 10 uM by sulforhodamine B assay; details: read-out: Activity
[38] = test system: RPMI-8226; assay: Growth inhibition of human RPMI8226 cells assessed as growth inhibition at 10 uM by sulforhodamine B assay; details: read-out: GI
[39] = test system: SK-MEL-2; assay: Growth inhibition of human SK-MEL-2 cells assessed as cell growth at 10 uM by sulforhodamine B assay; details: read-out: Activity
[40] = test system: MDA-MB-468; assay: Growth inhibition of human MDA-MB-468 cells assessed as growth inhibition at 10 uM by sulforhodamine B assay; details: read-out: GI
[41] = test system: Malme-3M; assay: Growth inhibition of human MALME-3M cells assessed as growth inhibition at 10 uM by sulforhodamine B assay; details: read-out: GI
[42] = test system: DU-145; assay: Growth inhibition of human DU145 cells assessed as growth inhibition at 10 uM by sulforhodamine B assay; details: read-out: GI
[43] = test system: RXF 393; assay: Growth inhibition of human RXF393 cells assessed as growth inhibition at 10 uM by sulforhodamine B assay; details: read-out: GI
[44] = test system: KM12; assay: Growth inhibition of human KM12 cells assessed as growth inhibition at 10 uM by sulforhodamine B assay; details: read-out: GI
[45] = test system: UACC-257; assay: Growth inhibition of human UACC257 cells assessed as cell growth at 10 uM by sulforhodamine B assay; details: read-out: Activity
[46] = test system: SF-268; assay: Growth inhibition of human SF268 cells assessed as cell growth at 10 uM by sulforhodamine B assay; details: read-out: Activity
[47] = test system: SF-268; assay: Growth inhibition of human SF268 cells assessed as growth inhibition at 10 uM by sulforhodamine B assay; details: read-out: GI
[48] = test system: BT-549; assay: Growth inhibition of human BT549 cells assessed as growth inhibition at 10 uM by sulforhodamine B assay; details: read-out: GI
[49] = test system: SNB-19; assay: Growth inhibition of human SNB19 cells assessed as growth inhibition at 10 uM by sulforhodamine B assay; details: read-out: GI

Structure (SMILES): C/C=C(/C)C(=O)O[C@@H]1CC(C)(C)C[C@H]2C3=CC[C@@H]4[C@@]5(C)CCC(=O)C(C)(C)[C@@H]5CC[C@@]4(C)[C@]3(C)CC[C@@]12C(=O)O [LANTADENE A]
- inhibition of growth at 10 µM [1]: 21.8%
- growth inhibition (GI) [2]: Active
- inhibition of growth at 10 µM [3]: 61.3%
- inhibition of growth at 10 µM [4]: 12.2%
- inhibition of growth at 10 µM [5]: 37.4%
- growth at 10 µM [6]: 76.9%
- inhibition of growth at 10 µM [7]: 36.2%
- growth at 10 µM [8]: 43.6%
- growth at 10 µM [9]: 61.4%
- growth at 10 µM [10]: 63.8%
- inhibition of growth at 10 µM [11]: 50.1%
- growth at 10 µM [12]: 44%
- growth at 10 µM [13]: 27.6%
- growth at 10 µM [14]: 37.2%
- inhibition of growth at 10 µM [15]: 31.4%
- inhibition of growth at 10 µM [16]: 55.9%
- growth at 10 µM [17]: 52.4%
- inhibition of growth at 10 µM [18]: 48.5%
- inhibition of growth at 10 µM [19]: 23.8%
- inhibition of growth at 10 µM [20]: 47.6%
- growth at 10 µM [21]: 80.4%
- inhibition of growth at 10 µM [22]: 39.9%
- growth at 10 µM [23]: 92.4%
- growth at 10 µM [24]: 54.7%
- growth at 10 µM [25]: 42.6%
- growth at 10 µM [26]: 44.1%
- growth at 10 µM [27]: 51.5%
- growth at 10 µM [28]: 78.8%
- growth at 10 µM [29]: 16.6%
- inhibition of growth at 10 µM [30]: 69.8%
- growth at 10 µM [31]: 68.7%
- growth at 10 µM [32]: 40%
- growth at 10 µM [33]: 34%
- growth at 10 µM [34]: 48.4%
- inhibition of growth at 10 µM [35]: 51.6%
- inhibition of growth at 10 µM [36]: 57.4%
- growth at 10 µM [37]: 78.2%
- inhibition of growth at 10 µM [38]: 83.3%
- growth at 10 µM [39]: 77.1%
- inhibition of growth at 10 µM [40]: 49.2%
- inhibition of growth at 10 µM [41]: 19.6%
- inhibition of growth at 10 µM [42]: 17.4%
- inhibition of growth at 10 µM [43]: 11.5%
- inhibition of growth at 10 µM [44]: 60%
- growth at 10 µM [45]: 70%
- growth at 10 µM [46]: 74.1%
- inhibition of growth at 10 µM [47]: 25.9%
- inhibition of growth at 10 µM [48]: 56%
- inhibition of growth at 10 µM [49]: 40.6%

Structure (SMILES): CC(C)=CC(=O)O[C@@H]1CC(C)(C)C[C@H]2C3=CC[C@@H]4[C@@]5(C)CCC(=O)C(C)(C)[C@@H]5CC[C@@]4(C)[C@]3(C)CC[C@@]12C(=O)O
- inhibition of growth at 10 µM [1]: 35%
- inhibition of growth at 10 µM ([2]; read-out: GI): 89.8%
- inhibition of growth at 10 µM [3]: 52.1%
- inhibition of growth at 10 µM [4]: 10.4%
- inhibition of growth at 10 µM [5]: 38.7%
- growth at 10 µM [6]: 71.3%
- inhibition of growth at 10 µM [7]: 19.7%
- growth at 10 µM [8]: 25.3%
- growth at 10 µM [9]: 52.8%
- growth at 10 µM [10]: 80.3%
- inhibition of growth at 10 µM [11]: 42.2%
- growth at 10 µM [12]: 69.6%
- growth at 10 µM [14]: 36.9%
- inhibition of growth at 10 µM [15]: 46%
- inhibition of growth at 10 µM [16]: 55%
- growth at 10 µM [17]: 42.6%
- inhibition of growth at 10 µM [18]: 52.9%
- inhibition of growth at 10 µM [19]: < 10%
- inhibition of growth at 10 µM [20]: 57.4%
- growth at 10 µM [21]: 85.4%
- inhibition of growth at 10 µM [22]: 61.8%
- growth at 10 µM [23]: 96.3%
- growth at 10 µM [24]: 49.3%
- growth at 10 µM [25]: 42%
- growth at 10 µM [26]: 45%
- growth at 10 µM [27]: 47.1%
- growth at 10 µM [28]: 79.6%
- growth at 10 µM [29]: 19.6%
- inhibition of growth at 10 µM [30]: 81.4%
- growth at 10 µM [31]: 62.7%
- growth at 10 µM [32]: 30.4%
- growth at 10 µM [33]: 26.6%
- growth at 10 µM [34]: 46.8%
- inhibition of growth at 10 µM [35]: 53.2%
- inhibition of growth at 10 µM [36]: 58%
- growth at 10 µM [37]: 65%
- inhibition of growth at 10 µM [38]: 80.4%
- growth at 10 µM [39]: 78.2%
- inhibition of growth at 10 µM [40]: 35.8%
- inhibition of growth at 10 µM [41]: 14.6%
- inhibition of growth at 10 µM [42]: 25.6%
- inhibition of growth at 10 µM [43]: 15.4%
- inhibition of growth at 10 µM [44]: 69.6%
- growth at 10 µM [45]: 73.9%
- growth at 10 µM [46]: 73%
- inhibition of growth at 10 µM [47]: 27%
- inhibition of growth at 10 µM [48]: 30.4%
- inhibition of growth at 10 µM [49]: 42.7%
